Reference: paper PMC10137255, “Disturbing the Redox Balance Using Buthionine Sulfoximine Radiosensitized Somatostatin Receptor-2 Expressing Pre-Clinical Models to Peptide Receptor Radionuclide Therapy with ^177Lu-DOTATATE” (Cancers, 2023)
Where “and” joins values, the source holds several entries; their conditions need not be identical. Equal entries are not always repeated.

What was measured:
[1] = test system: total glutathione in HBL cells; test: Total glutathione quantification, HBL; type: cell-based, human; conditions: 10^−7 M BSO for 18 h, vs non-treated, mean ± SEM, n = 6 from 2 independent experiments
Method: (§1) Total glutathione was assessed in cell lines and mice tissues using the Quantification kit for oxidized and reduced glutathione (Sigma), according to the manufacturer’s instructions. Cells in culture were harvested, washed and then lysed with freeze-thaw cycles and subsequently mixed with 5% 5-sulfosalicylic acid. After centrifugation at 8000× g for 10 min, the supernatant was collected, and the 5-sulfosalicylic acid concentration was reduced to 0.5% with water for glutathione quantification. Tumour, liver and kidneys were harvested, snap-frozen in liquid nitrogen and stored at −70 °C until assayed for glutathione. Tissues were homogenized in 5% 5-sulfosalicylic acid in lysing matrix D tubes (MP Biomedicals) containing ceramic beads using a FastPrep-24 homogenizer (MP Biomedicals, Irvine, CA, USA) and centrifuged at 8000× g for 10 min. The supernatant was collected, and the 5-sulfosalicylic acid concentration was reduced to 0.5% with water for glutathione quantification. The buffer solution was added to samples (either from cell lines or tissues) (in triplicates) in a 96-well plate. […] Absorbance was read at 405 nm using a microplate reader (Thermo Labsystems Multiskan EX, ThermoFisher, Waltham, MA, USA). Total glutathione concentration was determined using a calibration curve.

[2] = test system: total glutathione in MM162 cells; test: Total glutathione quantification, MM162; type: cell-based, human; conditions: 10^−7 M BSO for 18 h, vs non-treated, mean ± SEM, n = 6 from 2 independent experiments
Method: as §1

[3] = test system: total glutathione in COLO-677 cells; test: Total glutathione quantification, COLO-677; type: cell-based, human; conditions: 10^−7 M BSO for 18 h, vs non-treated, n = 6 from 2 independent experiments
Method: as §1

[4] = test system: total glutathione in EJM cells; test: Total glutathione quantification, EJM; type: cell-based, human; conditions: 10^−7 M BSO for 18 h, vs non-treated, mean ± SEM, n = 6 from 2 independent experiments
Method: as §1

[5] = test system: total glutathione in MIA-PACA-2 cells; test: Total glutathione quantification, MIA-PACA-2; type: cell-based, human; conditions: 10^−7 M BSO for 18 h, vs non-treated, mean ± SEM, n = 6 from 2 independent experiments
Method: as §1

[6] = test system: total glutathione in HT-29 cells; test: Total glutathione quantification, HT-29; type: cell-based, human; conditions: 10^−7 M BSO for 18 h, vs non-treated, n = 6 from 2 independent experiments
Method: as §1

[7] = test system: total glutathione in EJM tumours; test: Total glutathione in EJM tumours; type: in vivo, mouse; conditions: BSO 10 mM via drinking water (2 mmol/kg/day), summary in discussion
Method: (§2) Mice experiments were approved by the animal ethics committee of Université Libre de Bruxelles (Comité d’Ethique du Bien-Etre Animal (CEBEA)) and performed according to European guidelines. Female athymic nude Foxn1^nu mice (Charles River) (age = 5 to 6 weeks) were subcutaneously injected in the right flank with 1 × 10^6 EJM cells suspended in 100 µL of PBS and matrigel (1:1; Cultrex™ Basement Membrane Extract, Type 3, R&D Systems). The tumours were allowed to grow for 4 weeks before initiating treatments. At a tumour size of approximately 0.5 cm^3, mice were randomized into 4 treatment groups of 10 mice: control, ^177Lu-DOTATATE, BSO and ^177Lu-DOTATATE + BSO. […] All mice were monitored three times a week for body weight and tumour growth using a calliper. Tumour volume (mm^3) was calculated using the formula π/6 × length × width × height. The relative tumour volume was represented and calculated as (tumour volume on measured day)/(tumour volume measured at baseline). […] Another group of mice receiving ^177Lu-DOTATATE alone or in combination with BSO was sacrificed 24, 72 and 168 h post-injection (p.i.) for ex vivo biodistribution studies and early glutathione quantification (4 mice per group per time point) (Figure 1).

[8] = Water intake and tolerability in mice; conditions: EJM xenograft nude mice; BSO 10 mM in drinking water; 30 MBq 177Lu-DOTATATE IV
Method: as §2

kidneys = test: H&E staining of kidneys; conditions: mouse, in vivo
Method: (§3) Liver and kidneys were harvested, fixed in PAXgene Tissue FIX (Qiagen, Hilden, Germany) for 1 day at room temperature and kept at 4 °C in PAXgene Tissue STABILIZER (Qiagen) until they were embedded in paraffin for histological studies. Staining was carried out on 4 μm paraffin-embedded tissue sections subsequently deparaffinized in xylene and rehydrated in decreasing alcohol concentrations. Slides were incubated in Mayer’s hematoxylin for 6 min and subsequently in eosin for 3 min. Slides were mounted using Tissue-Tek Prisma (Sakura, Alphen aan den Rijn, The Netherlands). Digital scans of slides were acquired with Nanozoomer NDP (Hamamatsu Photonics, Shizuoka, Japan) and analysed by an experienced clinical pathologist.

liver = test: H&E staining of liver; conditions: mouse, in vivo
Method: as §3

[9] = test system: EJM multiple myeloma xenograft; test: Tumour growth (calliper), EJM xenograft; type: in vivo, mouse; conditions: 30 MBq 177Lu-DOTATATE IV day 28 and/or 10 mM BSO drinking water 3 weeks, exponential growth fit, [95% CI], 8 to 10 mice per group
Method: as §2

HBL melanoma cell line = conditions: 5 MBq 177Lu-DOTATATE for 4 h and/or BSO 10^−7 M from the day before irradiation until day 10, crystal violet day 10, % of non-treated, mean ± SEM, n = 12 from 3 independent experiments
MM162 melanoma cell line = conditions: 5 MBq 177Lu-DOTATATE for 4 h and/or BSO 10^−7 M from the day before irradiation until day 10, crystal violet day 10, % of non-treated, mean ± SEM, n = 12 from 3 independent experiments
[10] = test system: COLO-677 multiple myeloma cell line; conditions: 5 MBq 177Lu-DOTATATE for 4 h and/or BSO 10^−7 M from the day before irradiation until day 10, crystal violet day 10, % of non-treated, mean ± SEM, n = 12 from 3 independent experiments
[11] = test system: EJM multiple myeloma cell line; conditions: 5 MBq 177Lu-DOTATATE for 4 h and/or BSO 10^−7 M from the day before irradiation until day 10, crystal violet day 10, % of non-treated, mean ± SEM, n = 12 from 3 independent experiments
[12] = test system: MIA-PACA-2 pancreatic adenocarcinoma cell line; conditions: 5 MBq 177Lu-DOTATATE for 4 h and/or BSO 10^−7 M from the day before irradiation until day 10, crystal violet day 10, % of non-treated, mean ± SEM, n = 12 from 3 independent experiments
[13] = test system: HT-29 colon adenocarcinoma cell line; conditions: 5 MBq 177Lu-DOTATATE for 4 h and/or BSO 10^−7 M from the day before irradiation until day 10, crystal violet day 10, % of non-treated, mean ± SEM, n = 12 from 3 independent experiments
[14] = cited from earlier work
Method: The optimal combination treatment schedule would still have to be determined, which would be the one allowing the use of the minimal effective dose of BSO, i.e., the dose necessary to achieve sufficient tumour GSH depletion to have an efficient tumour radiosensitization, without excessive healthy tissue toxicity. The rapid clearance of BSO (estimated half-life in plasma of less than 2 h) and the rapid rate of GSH turnover would allow one to closely control GSH levels with BSO and allow for a GSH depletion only during tumour irradiation with ^177Lu-DOTATATE, limiting the potential ...

[15] = design: method as in PMID 27092812, PMID 8270977, PMID 8558205, PMID 9392620; conditions: early-phase clinical studies on solid tumours; cited from earlier work
EJM xenograft mice = test: Ex vivo biodistribution and time-activity curves; type: in vivo, mouse; conditions: 30 MBq 177Lu-DOTATATE IV ± 10 mM BSO via drinking water, single exponential fit of time-activity curve, n = 1 to 6 mice per group
Method: as §2

bone marrow [16] = test: Bone marrow apoptosis assessment (Annexin V/7-AAD); type: in vivo, mouse; conditions: mice sacrificed 29 to 38 days post-177Lu-DOTATATE injection; Annexin V/7-AAD flow cytometry; mean ± SEM; 3 to 4 mice per group
Method: At the time of sacrifice, bone marrow (BM) was harvested from both femurs (containing hematopoietically active marrow) of the animals. Femurs were excised from each mouse, and then the attached muscle was trimmed from the periosteal surface and the bone was opened at the distal end. BM was isolated using the cytocentrifuge method. In brief, the femur was placed in a 0.5 mL Eppendorf tube pre-punctured with a needle at the base of the tube to form an opening. The 0.5 mL tube was nested within a 1.5 mL Eppendorf tube, and both were centrifuged at 10,000 rpm for 15 s to form a BM pellet at the bottom of the 1.5 mL Eppendorf tube yet to retain the femur within the 0.5 mL tube. • Bone marrow smears and cytological assessment. BM samples were assayed for apoptosis. A 10 min incubation step at 37 °C with NH4Cl was performed for red blood cell lysis. Samples were then centrifuged for 5 min, and the supernatant containing lysed red blood cells was discarded. Samples were then incubated with Annexin-V Binding Buffer (ThermoFisher, Waltham, MA, USA), Annexin V (BD Biosciences, Franklin Lakes, NJ, USA) and 7-AAD (BD Biosciences, Franklin Lakes, NJ, USA) for 15 min at room temperature. Annexin Buffer was added to samples that were subsequently analysed using a MACSQuant Analyzer 10 Flow Cytometer (Miltenyi Biotec, Bergisch Gladbach, Germany).

bone marrow [17] = test: Bone marrow smears and cytological assessment; type: in vivo, mouse; conditions: 29 to 38 days p.i.
Method: At the time of sacrifice, bone marrow (BM) was harvested from both femurs (containing hematopoietically active marrow) of the animals. Femurs were excised from each mouse, and then the attached muscle was trimmed from the periosteal surface and the bone was opened at the distal end. BM was isolated using the cytocentrifuge method. In brief, the femur was placed in a 0.5 mL Eppendorf tube pre-punctured with a needle at the base of the tube to form an opening. The 0.5 mL tube was nested within a 1.5 mL Eppendorf tube, and both were centrifuged at 10,000 rpm for 15 s to form a BM pellet at the bottom of the 1.5 mL Eppendorf tube yet to retain the femur within the 0.5 mL tube. • Bone marrow smears and cytological assessment.
BM smears were prepared using the push-slide technique. In brief, one drop of BM was placed at one extremity of a glass slide and was then spread in an even film using a second glass slide (held at an angle) as a spreader. The spreader slide was slid forward the length of the slide to produce a smear. Slides were fixed in absolute methanol for 5 min and then air-dried. May-Grunwald–Giemsa staining was used for routine evaluation of BM cytomorphology. […] A qualitative and quantitative cytological evaluation of all the major lineages was performed by an experienced clinical pathologist on 300 to 500 cells. • Bone marrow apoptosis assessment.

## CCCCS(=N)(=O)CC[C@H](N)C(=O)O (stereo partly drawn) [BSO, L-Buthionine-(S,R)-Sulfoximine]
[1]
  change in total glutathione levels: −21.5 ± 3.0%
[2]
  change in total glutathione levels: −11.1 ± 3.7%
[3]
  change in total glutathione levels: not affected
[4]
  change in total glutathione levels: −9.4 ± 2.2%
[5]
  change in total glutathione levels: −20.7 ± 3.5%
[6]
  change in total glutathione levels: not affected
[7]
  tumour GSH depletion: ~ 80%
[8]
  water intake: 5.6 ± 0.6 mL/day/mouse
kidneys
  kidney histology (H&E): No morphological changes were observed
liver
  liver histology (H&E): No morphological changes were observed
[9]
  Tumour doubling time: 7.5 days and 7.5 [6.3 – 9.1] days
HBL melanoma cell line
  cell survival: 81.2 ± 3.8%
MM162 melanoma cell line
  cell survival: did not affect cell lines survival
[10]
  cell survival: did not affect cell lines survival
[11]
  cell survival: did not affect cell lines survival
[12]
  cell survival: 87.6 ± 3.8%
[13]
  cell survival: did not affect cell lines survival
[14]
  estimated half-life in plasma: less than 2 h
[15]
  adverse events caused by BSO alone: only grade 1–2 nausea and vomiting

## C[C@@H](O)[C@H](NC(=O)[C@@H]1CSSC[C@H](NC(=O)[C@@H](Cc2ccccc2)NC(=O)CN2CCN(CC(=O)O)CCN(CC(=O)O)CCN(CC(=O)O)CC2)C(=O)N[C@@H](Cc2ccc(O)cc2)C(=O)N[C@H](Cc2c[nH]c3ccccc23)C(=O)N[C@@H](CCCCN)C(=O)N[C@@H]([C@@H](C)O)C(=O)N1)C(=O)O [^177Lu-DOTATATE, metal not drawn]
EJM xenograft mice
  effective half-life in the kidneys: 13.7 h
  effective half-life in the liver: 24 h
[8]
  water intake: 5.2 ± 0.5 mL/day/mouse
Bone marrow [16]
  BM apoptotic cells: 33.0 ± 2.8%
Bone marrow [17]; BM smears, May-Grunwald–Giemsa, 3 to 4 mice per group
  relative proportion of BM lineages (erythroid, granulocytic, lymphoid), between treatment groups: no significant differences
Bone marrow [17]; major BM lineages including megakaryocytes
  qualitative assessment of BM smears (morphology): did not show any morphological abnormalities
kidneys
  kidney histology (H&E): No morphological changes were observed
liver
  liver histology (H&E): No morphological changes were observed
